Test results as given in patent US4297357A, “N-Phenethylacetamide compounds and process for preparation thereof” (Daiichi Seiyaku Co., Ltd., priority 1978, dated 1981).
Structures can show the parent of a compound that is named as a salt. Each block holds one compound with its values, some of them ahead of it.

Tests used:
Stress Ulcer = experiment: Inhibitory Effect on Stress Ulcer in Rat (Water Immersion Restraint Method); assay type: in vivo; conditions: water immersion restraint 21° C.; for inhibition in vivo at 100 mg/kg / inhibition in vivo at 200 mg/kg / inhibition in vivo at 400 mg/kg: Rattus norvegicus
Description: In this experiment, test compounds were administered as the free base, in the form of the hydrochloric acid salts or in the form of the hydrate. | Inhibitory Effect on Stress Ulcer in Rat |Inhibitory Effect on Stress Ulcer in Rat |Inhibitory Effect on Stress Ulcer in Rat Note 2. Inhibitory effect on Stress Ulcer was examined according to Water Immersion Restraint Method disclosed in Japanese Journal of Pharmacology, Vol. 18, 9 (1968). Note 3. As test animals, seven rats weighing about 300 g were used for each dosage level. Note 4. Test compounds were injected intraperitoneally or administered orally before 30 minutes of water immersion restrain. Note 5. Test animals were immersed and restrained in water at 21° C. for 20 hours in experiment of Tables 2 and 3 and at 21° C. for 7 hours in experiment of Table 4.

[1] = system: Secretion of Gastric Acids Induced by Insuline; experiment: Inhibitory effect on secretion of gastric acids induced by insuline (modified Shield's Method); assay type: in vivo; conditions: rat, i.v., insuline 4 ug/kg
Description: Accordingly, the compounds of this invention are very useful as a unique type of anti-ulcer agent. […] The results obtained in this experiment are shown in Table 5 and Table 6 below. |Inhibitory Effects on Secretion of Gastric Acids |Induced by Insuline (dose: 4 ug/kg, i.v.)

[2] = system: Secretion of Gastric Acids Induced by Carpronium Chloride; experiment: Inhibitory effect on secretion of gastric acids induced by carpronium chloride (modified Shield's Method); assay type: in vivo; conditions: rat, i.v., carpronium chloride 8-10 μg/rat
Description: Accordingly, the compounds of this invention are very useful as a unique type of anti-ulcer agent. […] The results obtained in this experiment are shown in Table 5 and Table 6 below. |Inhibitory Effects on Secretion of Gastric Acids Induced |by Carponium Chloride (dose: 8-10 μg/rat, i.v.)

[3] = stability of hydrate in methanol by thin layer chromatography; assay type: physicochemical; conditions: room temperature, 48 hours
Description: (§1) It was also confirmed by thin layer chromatography that the hydrate was stable in methanol at room temperature for 48 hours. This means that it is possible to use methanol as a solvent in producing pharmaceutical preparations. It was further confirmed that a mixture of the hydrate of this invention with various kinds of additives such as carriers, diluents, etc., was stable under accelerated conditions, i.e., under high humidity at an elevated temperature for one month or under the light irradiation from 2,500 lux for one month.

[4] = isothermal absorption curve, stability of hydrate under high humidity; assay type: physicochemical
Description: as §1

[5] = Stability of Mixture of Hydrate with Various Kinds of Additives (one month storage), color change; assay type: physicochemical; parameters: key to color change: --: no color change; ±: slight color change; +: clear color change
Description: as §1
Stability of Mixture of Hydrate with Various
Kinds of Additives (one month storage)
The meaning of the symbols is as follows.
Samples were prepared by well mixing 100 mg of the hydrate with 100 mg of
the additive except for magnesium stearate and talc. In case of using
magnesium stearate or talc as the additive, 10 mg of the hydrate was used

ulcer = conditions: The Pharmacological Basis of Therapeutics, 4th Edition, 234 (1970); cited from earlier work
cardiovascular system = conditions: Pharmacometrics, Vol. 8, 835-846 (1974); cited from earlier work
[6] = ip, 20 h, intraperitoneal, 100 mg/kg

SMILES: COc1ccc(CCNC(=O)CNc2cccc(Cl)c2)cc1OC
inhibition in vivo at 100 mg/kg (Stress Ulcer; [6]): 36%

SMILES: COc1ccc(CCNC(=O)CNc2ccc(C(N)=O)cc2)cc1OC
inhibition in vivo at 100 mg/kg (Stress Ulcer; [6]): 20%

SMILES: COc1ccc(C(N)=O)c(NCC(=O)NCCc2ccc(OC)c(OC)c2)c1
inhibition in vivo at 100 mg/kg (Stress Ulcer; [6]): 44%

SMILES: COc1ccc(CCNC(=O)CNc2ccc(Cl)cc2C(N)=O)cc1OC
inhibition in vivo at 100 mg/kg (Stress Ulcer; [6]): 34%

SMILES: COc1ccc(CCNC(=O)CNc2ccc(Cl)c(C(N)=O)c2)cc1OC
inhibition in vivo at 100 mg/kg (Stress Ulcer; [6]): 35%

SMILES: COc1ccc(CCNC(=O)CNc2cc(OC)c(C(N)=O)cc2Cl)cc1OC
inhibition in vivo at 100 mg/kg (Stress Ulcer; [6]): 21%

SMILES: COc1ccc(CCNC(=O)CNC(=O)c2ccccc2OC)cc1OC
inhibition in vivo at 100 mg/kg (Stress Ulcer; [6]): 50%

SMILES: COc1ccc(CCNC(=O)CNc2cc(N)ncn2)cc1OC
inhibition in vivo at 100 mg/kg (Stress Ulcer; [6]): 27%

SMILES: CNc1nc(Cl)c(SC)c(NCC(=O)NCCc2ccc(OC)c(OC)c2)n1
inhibition in vivo at 100 mg/kg (Stress Ulcer; [6]): 17%

SMILES: COc1ccc(CCNC(=O)CNc2cccc(S(N)(=O)=O)c2)cc1OC
inhibition in vivo at 100 mg/kg (Stress Ulcer; [6]): 47%

SMILES: COc1ccc(CCNC(=O)CNc2cc(Cl)ccc2C(N)=O)cc1OC [Compound 1, 2-(2-carbamoyl-5-chlorophenylamino)-N-(3,4-dimethoxyphenethyl)acetamide]
inhibition in vivo at 100 mg/kg (Stress Ulcer; po, 20 h, 100 mg/kg): 5% | inhibition in vivo at 200 mg/kg (Stress Ulcer; po, 20 h): 17% | inhibition in vivo at 400 mg/kg (Stress Ulcer; po, 20 h): 18% | Inhibition ([1]; 50 mg/kg): 50% | Inhibition ([2]; 50 mg/kg): 0%

SMILES: COc1ccc(CCNC(=O)CNc2cccc(C(N)=O)c2)cc1OC.Cl [Compound 2, 2-(3-carbamoylphenylamino)-N-(3,4-dimethoxyphenethyl)acetamide hydrochloride]
inhibition in vivo at 100 mg/kg (Stress Ulcer; po, 20 h, 100 mg/kg): 5% | inhibition in vivo at 200 mg/kg (Stress Ulcer; po, 20 h): 21% | inhibition in vivo at 400 mg/kg (Stress Ulcer; po, 20 h): 33% | Inhibition ([1]; 10 mg/kg): 80% | Inhibition ([2]; 50 mg/kg): 0% | Inhibition ([2]; 100 mg/kg): 0%

SMILES: COc1ccc(CCNC(=O)CNc2ccccc2)cc1OC [Compound 3, 2-(phenylamino)-N-(3,4-dimethoxyphenethyl)acetamide hydrochloride]
inhibition in vivo at 100 mg/kg (Stress Ulcer; po, 20 h, 100 mg/kg): 20% | inhibition in vivo at 200 mg/kg (Stress Ulcer; po, 20 h): 20% | inhibition in vivo at 400 mg/kg (Stress Ulcer; po, 20 h): 25%

stability in methanol [3]: stable | stability under high humidity ([4]; high humidity at an elevated temperature): very stable | relative critical humidity ([4]; isothermal absorption curve): had not relative critical humidity | color change ([5]; additive Calcium Phosphate Dibasic, one month storage, condition shown as drawing 6 (high humidity at an elevated temperature)): -- | color change ([5]; additive Calcium Phosphate Dibasic, one month, light 2500 lux): -- | color change ([5]; additive Cornstarch, one month storage, condition shown as drawing 6 (high humidity at an elevated temperature)): -- | color change ([5]; additive Cornstarch, one month, light 2500 lux): -- | color change ([5]; additive Crystalline Cellulose, one month storage, condition shown as drawing 6 (high humidity at an elevated temperature)): -- | color change ([5]; additive Crystalline Cellulose, one month, light 2500 lux): -- | color change ([5]; additive Hydroxypropylcellulose, one month storage, condition shown as drawing 6 (high humidity at an elevated temperature)): -- | color change ([5]; additive Hydroxypropylcellulose, one month, light 2500 lux): -- | color change ([5]; additive Hydroxypropylmethylcellulose, one month storage, condition shown as drawing 6 (high humidity at an elevated temperature)): ± | color change ([5]; additive Hydroxypropylmethylcellulose, one month, light 2500 lux): -- | color change ([5]; additive Lactose, one month storage, condition shown as drawing 6 (high humidity at an elevated temperature)): -- | color change ([5]; additive Lactose, one month, light 2500 lux): -- | color change ([5]; additive Macrogol 6000, one month storage, condition shown as drawing 6 (high humidity at an elevated temperature)): -- | color change ([5]; additive Macrogol 6000, one month, light 2500 lux): -- | color change ([5]; additive Magnesium Stearate, one month storage, condition shown as drawing 6 (high humidity at an elevated temperature)): -- | color change ([5]; additive Magnesium Stearate, one month, light 2500 lux): -- | color change ([5]; additive Mannitol, one month storage, condition shown as drawing 6 (high humidity at an elevated temperature)): -- | color change ([5]; additive Mannitol, one month, light 2500 lux): -- | color change ([5]; additive Polyvinyl Alcohol, one month storage, condition shown as drawing 6 (high humidity at an elevated temperature)): -- | color change ([5]; additive Polyvinyl Alcohol, one month, light 2500 lux): -- | color change ([5]; additive Sucrose, one month storage, condition shown as drawing 6 (high humidity at an elevated temperature)): -- | color change ([5]; additive Sucrose, one month, light 2500 lux): -- | color change ([5]; additive Talc, one month storage, condition shown as drawing 6 (high humidity at an elevated temperature)): -- | color change ([5]; additive Talc, one month, light 2500 lux): -- | stability of mixture with additives ([5]; in words, high humidity at an elevated temperature for one month or light irradiation from 2,500 lux for one month): stable
SMILES: COc1ccc(CCNC(=O)CNc2cccc(C(N)=O)c2)cc1OC [Compound 4, 2-(3-carbamoylphenylamino)-N-(3,4-dimethoxyphenethyl)acetamide.3H2 O]
inhibition in vivo at 100 mg/kg (Stress Ulcer; po, 7 h, 100 mg/kg): 23% | inhibition in vivo at 200 mg/kg (Stress Ulcer; po, 7 h): 36% | inhibition in vivo at 400 mg/kg (Stress Ulcer; po, 7 h): 70%

SMILES: NCCc1ccc(O)c(O)c1 [Dopamine, 3,4-dihydroxyphenethylamine]
anti-ulcer activity (ulcer): has anti-ulcer activity | action on cardiovascular system (cardiovascular system): acts strongly on cardiovascular system

SMILES: CCN1CCCC1CNC(=O)c1cc(S(N)(=O)=O)ccc1OC (centres unmarked) [Sulpiride, N-[(1-ethyl-2-pyrrolidinyl)methyl]-2-methoxy-5-sulfamoylbenzamide, reference compound]
inhibition in vivo at 100 mg/kg (Stress Ulcer; [6]): 27% | inhibition in vivo at 100 mg/kg (Stress Ulcer; po, 7 h, 100 mg/kg): 29% | inhibition in vivo at 200 mg/kg (Stress Ulcer; po, 7 h): 20% | inhibition in vivo at 400 mg/kg (Stress Ulcer; po, 7 h): 39% | inhibition in vivo at 100 mg/kg (Stress Ulcer; po, 20 h, 100 mg/kg): 5% | inhibition in vivo at 200 mg/kg (Stress Ulcer; po, 20 h): 4% | inhibition in vivo at 400 mg/kg (Stress Ulcer; po, 20 h): 11%

SMILES: COc1ccc(CCNC(=O)CNc2ccccc2)cc1OC [drawing 8]
inhibition in vivo at 100 mg/kg (Stress Ulcer; [6]): 42%

SMILES: COc1ccc(CCNC(=O)CNc2cc(Cl)ccc2C(N)=O)cc1OC [drawing 11]
inhibition in vivo at 100 mg/kg (Stress Ulcer; [6]): 38%

SMILES: COc1ccc(CCNC(=O)CNc2cccc(C(N)=O)c2)cc1OC [drawing 15]
inhibition in vivo at 100 mg/kg (Stress Ulcer; [6]): 53%

SMILES: COc1ccc(CCNC(=O)CNc2cccc(C(N)=O)c2)cc1OC [drawing 16]
Inhibitory Effect (Stress Ulcer; intraperitoneal, 100 mg/kg, 20 hours): 52%
